What all share (type): biochemical
In assay [1] the target is T1, HDAC2 (Homo sapiens, UniProt Q92769).
T1 construct: purchased BPS Bioscience 50002
Put plainly: HDAC-Glo I/II enzymatic assay, HDAC2. The following applies: read-out: HDAC2 pIC50 (converted). As to the method: (§1) Inhibitors were tested at eight serial dilutions in triplicate ranging from 50 μM–86,7 pM (HDAC6) or 100 μM–8,67 nM (HDAC1,2,3,8). Drug dosing was performed from 10 mM and 0.1 mM DMSO stock solutions with a D300e Digital Dispenser (Tecan). HDACs (7 ng/mL for HDAC1, 10 ng/mL for HDAC2, 200 ng/mL for HDAC3/Ncor2 complex, 100 ng/mL for HDAC6, 200 ng/mL for HDAC8) and inhibitors were incubated together for 30 min at room temperature. After addition of the HDAC‐Glo™ I/II reagent, plates were shaken (800 rpm orbital shaker, 30 s), centrifuged (300 g, 1 min) and incubated at room temperature for 30 min. Luminescence was detected with a CLARIOstar (BMG Labtech) plate reader.

Assay [2] addresses T2, HDAC3/NcoR2 complex (Homo sapiens, UniProt O15379).
T2 construct: purchased BPS Bioscience 50003
Put plainly: HDAC-Glo I/II enzymatic assay, HDAC3. Particulars: read-out: HDAC3 pIC50 (converted). As to the method:
as §1

Assay [3] concerns the target T3, HDAC8 (Homo sapiens, UniProt Q9BY41).
T3 construct: purchased BPS Bioscience 50008
T3 sequence (Q9BY41 1-377): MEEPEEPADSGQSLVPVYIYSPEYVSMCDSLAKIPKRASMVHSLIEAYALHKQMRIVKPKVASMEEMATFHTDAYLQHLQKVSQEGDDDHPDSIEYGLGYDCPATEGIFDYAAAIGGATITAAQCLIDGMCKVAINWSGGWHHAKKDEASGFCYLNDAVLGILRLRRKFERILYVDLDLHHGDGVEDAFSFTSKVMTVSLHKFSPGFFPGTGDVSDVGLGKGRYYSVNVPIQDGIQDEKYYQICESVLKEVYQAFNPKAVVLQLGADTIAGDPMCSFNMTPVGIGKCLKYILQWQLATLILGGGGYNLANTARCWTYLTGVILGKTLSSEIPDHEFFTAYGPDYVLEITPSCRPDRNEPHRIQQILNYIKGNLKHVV
Description: HDAC-Glo I/II enzymatic assay, HDAC8. Particulars: read-out: HDAC8 pIC50 (converted). As to the method:
as §1

In assay [4] the target is T4, HDAC6 (Homo sapiens, UniProt Q9UBN7).
T4 construct: purchased BPS Bioscience 50006
T4 sequence (Q9UBN7 1-1215): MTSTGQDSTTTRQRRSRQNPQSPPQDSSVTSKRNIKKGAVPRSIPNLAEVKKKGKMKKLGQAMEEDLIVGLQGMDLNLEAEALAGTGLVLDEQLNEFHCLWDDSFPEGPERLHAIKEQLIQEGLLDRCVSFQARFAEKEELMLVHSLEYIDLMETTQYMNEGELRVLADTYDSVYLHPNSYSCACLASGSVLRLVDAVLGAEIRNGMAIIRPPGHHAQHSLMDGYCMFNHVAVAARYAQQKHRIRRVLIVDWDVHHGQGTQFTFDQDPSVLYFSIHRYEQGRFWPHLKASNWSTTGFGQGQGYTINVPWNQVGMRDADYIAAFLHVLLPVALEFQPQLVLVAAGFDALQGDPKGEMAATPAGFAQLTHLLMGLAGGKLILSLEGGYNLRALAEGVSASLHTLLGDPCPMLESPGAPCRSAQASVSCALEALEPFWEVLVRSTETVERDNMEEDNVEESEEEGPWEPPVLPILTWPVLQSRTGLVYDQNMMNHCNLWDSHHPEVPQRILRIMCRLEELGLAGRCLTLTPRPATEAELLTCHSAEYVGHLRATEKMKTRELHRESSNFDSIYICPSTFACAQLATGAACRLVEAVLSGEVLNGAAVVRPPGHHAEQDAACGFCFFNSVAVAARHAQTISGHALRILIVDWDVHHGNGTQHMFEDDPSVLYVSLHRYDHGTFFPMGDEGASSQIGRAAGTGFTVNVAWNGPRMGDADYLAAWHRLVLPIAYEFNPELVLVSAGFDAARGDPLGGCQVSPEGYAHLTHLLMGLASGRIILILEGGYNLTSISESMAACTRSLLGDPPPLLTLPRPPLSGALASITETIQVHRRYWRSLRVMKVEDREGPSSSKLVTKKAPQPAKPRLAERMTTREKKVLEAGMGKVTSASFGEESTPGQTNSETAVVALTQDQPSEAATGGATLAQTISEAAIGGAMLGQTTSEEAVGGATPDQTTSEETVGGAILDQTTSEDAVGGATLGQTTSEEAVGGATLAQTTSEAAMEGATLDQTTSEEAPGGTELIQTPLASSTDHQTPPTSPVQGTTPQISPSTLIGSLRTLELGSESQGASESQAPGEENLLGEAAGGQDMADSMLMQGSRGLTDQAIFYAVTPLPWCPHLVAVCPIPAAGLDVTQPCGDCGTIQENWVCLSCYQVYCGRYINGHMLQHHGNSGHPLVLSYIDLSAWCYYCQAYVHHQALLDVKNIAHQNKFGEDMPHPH
Description: HDAC-Glo I/II enzymatic assay, HDAC6. Particulars: read-out: HDAC6 pIC50 (converted). As to the method:
as §1

The target of assay [5] is T5, HDAC1 (Homo sapiens, UniProt Q13547).
T5 construct: purchased BPS Bioscience 50051
T5 sequence (Q13547 whole entry): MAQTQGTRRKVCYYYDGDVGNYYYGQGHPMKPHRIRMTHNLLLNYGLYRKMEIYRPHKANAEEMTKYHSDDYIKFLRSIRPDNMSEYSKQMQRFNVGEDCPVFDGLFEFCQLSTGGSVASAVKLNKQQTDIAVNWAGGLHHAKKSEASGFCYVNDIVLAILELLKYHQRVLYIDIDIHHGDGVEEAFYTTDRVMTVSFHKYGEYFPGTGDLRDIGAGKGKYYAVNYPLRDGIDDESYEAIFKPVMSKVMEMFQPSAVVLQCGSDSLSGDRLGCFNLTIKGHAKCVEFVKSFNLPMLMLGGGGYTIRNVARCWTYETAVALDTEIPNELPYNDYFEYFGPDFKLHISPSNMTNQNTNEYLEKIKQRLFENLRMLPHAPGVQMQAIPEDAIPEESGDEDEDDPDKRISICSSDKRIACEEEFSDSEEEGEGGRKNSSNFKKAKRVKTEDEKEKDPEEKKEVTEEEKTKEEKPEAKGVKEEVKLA
Put plainly: HDAC-Glo I/II enzymatic assay, HDAC1. Particulars: read-out: HDAC1 pIC50 (converted). As to the method: as §1

T2 sequence (O15379 whole entry): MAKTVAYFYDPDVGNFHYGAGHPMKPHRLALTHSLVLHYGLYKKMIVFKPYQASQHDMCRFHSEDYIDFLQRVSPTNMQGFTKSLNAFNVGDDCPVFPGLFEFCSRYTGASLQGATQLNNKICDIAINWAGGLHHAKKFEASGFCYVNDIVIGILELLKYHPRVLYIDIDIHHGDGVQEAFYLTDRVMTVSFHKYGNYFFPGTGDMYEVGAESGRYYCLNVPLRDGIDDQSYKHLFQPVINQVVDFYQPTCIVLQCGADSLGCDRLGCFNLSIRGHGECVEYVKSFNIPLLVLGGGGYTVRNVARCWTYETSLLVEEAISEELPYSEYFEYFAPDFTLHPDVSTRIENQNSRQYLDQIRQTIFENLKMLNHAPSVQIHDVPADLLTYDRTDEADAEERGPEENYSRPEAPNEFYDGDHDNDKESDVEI
T2 sequence (Q9Y618 395-489 partner limits assumed): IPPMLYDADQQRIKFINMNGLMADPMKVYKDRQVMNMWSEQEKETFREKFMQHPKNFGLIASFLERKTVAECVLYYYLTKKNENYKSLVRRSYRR
T1 sequence (Q92769 whole entry): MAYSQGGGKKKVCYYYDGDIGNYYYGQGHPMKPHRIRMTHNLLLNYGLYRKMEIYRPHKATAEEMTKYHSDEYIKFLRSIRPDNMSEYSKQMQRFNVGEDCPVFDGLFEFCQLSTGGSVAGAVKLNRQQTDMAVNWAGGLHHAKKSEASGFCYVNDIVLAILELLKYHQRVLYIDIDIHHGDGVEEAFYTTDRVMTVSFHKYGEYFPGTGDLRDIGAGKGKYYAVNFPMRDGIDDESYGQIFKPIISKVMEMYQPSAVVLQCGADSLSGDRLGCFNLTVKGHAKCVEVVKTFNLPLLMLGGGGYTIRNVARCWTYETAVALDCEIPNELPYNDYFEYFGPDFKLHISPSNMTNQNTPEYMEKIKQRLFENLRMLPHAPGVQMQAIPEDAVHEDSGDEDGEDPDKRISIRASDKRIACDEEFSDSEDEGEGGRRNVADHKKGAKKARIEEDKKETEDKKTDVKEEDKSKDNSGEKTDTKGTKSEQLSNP

Consider `O=C(NO)c1ccc(Cn2ncc3ccc(C(=O)NO)cc32)cc1` [Compound 3f], for which the IC50 is 724 nM in assay [1]; 1320 nM in assay [2]; 42.7 nM in assay [3]; 15.1 nM in assay [4]; 87.1 nM in assay [5].

With `CN(C)Cc1nn(Cc2ccc(C(=O)NO)cc2)c2cc(C(=O)NO)ccc12` [Compound 3g], the IC50 in assay [1] is 9550 nM; in assay [2], 6610 nM; in assay [3], 89.1 nM; in assay [4], 30.2 nM; in assay [5], 661 nM.

For the molecule `O=C(NO)c1ccc(Cn2ccc3ccc(C(=O)NO)cc32)cc1` [Compound 3a], the IC50 in assay [1] is 2240 nM; in assay [2], 5500 nM; in assay [3] it was 67.6 nM; in assay [4], 18.2 nM; in assay [5], 263 nM.

As for `CN(C)Cc1nn(Cc2ccc(C(=O)NO)cc2)c2ccccc12` [Compound 1g], the IC50 in assay [3] was 851 nM.

As to `CN1CCc2c(c3ccc(C(=O)NO)cc3n2Cc2ccc(C(=O)NO)cc2)C1` [Compound 3c], the IC50 in assay [1] was 4170 nM; in assay [2], 13500 nM; in assay [3], 513 nM; in assay [4] it was 47.9 nM; in assay [5], 501 nM.

For `O=C(NO)c1ccc(Cc2c[nH]c3ccc(C(=O)NO)cc23)cc1` [Compound 3d], the IC50 is 4680 nM in assay [1]; 6460 nM in assay [2]; 97.7 nM in assay [3]; 22.4 nM in assay [4]; 525 nM in assay [5].

With `CN(C)Cc1cn(Cc2ccc(C(=O)NO)cc2)c2cc(C(=O)NO)ccc12` [Compound 3b], the IC50 in assay [1] is 5370 nM; in assay [2], 6920 nM; in assay [3], 166 nM; in assay [4], 75.9 nM; in assay [5], 617 nM.

`CN(C)CCn1cc(Cc2ccc(C(=O)NO)cc2)c2cc(C(=O)NO)ccc21` [Compound 3e]: the IC50 in assay [1] was 7080 nM; in assay [2], 6610 nM; in assay [3], 66.1 nM; in assay [4], 44.7 nM; in assay [5], 813 nM.

Source of the values: PMC7335359, “Design and Synthesis of Dihydroxamic Acids as HDAC6/8/10 Inhibitors” (Chemmedchem, 2020).
